Assay results published in ChEMBL document CHEMBL2331167, “Inhibitory effect of novel somatostatin peptide analogues on human cancer cell growth based on the selective inhibition of DNA polymerase β” (Bioorg Med Chem, 2013).

Assays:
HCT-116 [1] = assay: Induction of apoptosis in p53 +/+ human HCT116 cells assessed as apoptotic cells at 13.2 uM incubated for 24 hrs by TUNEL analysis relative to p53 -/- human HCT116 cells; type: functional
HCT-116 [2] = assay: Cytotoxicity against MMS-induced p53 +/+ human HCT116 cells assessed as reduction in clonogenic survival at 13.2 uM incubated for 24 hrs by WST-1 assay relative to control; type: functional
HCT-116 [3] = assay: Cytotoxicity against p53 +/+ human HCT116 cells assessed as growth inhibition incubated for 24 hrs by WST-1 assay; type: functional; conditions: HCT-116, 24 h, read-out: LD50 (the source's name)
DNA polymerase eta = target: T1, DNA polymerase eta (Homo sapiens, UniProt Q9Y253); assay: Inhibition of human DNA polymerase eta using poly(dA)/oligo(dT)18 (A/T, 2/1)/dTTP DNA template-primer substrate measured at 37 degC for 60 mins
T1 sequence (Q9Y253 whole entry): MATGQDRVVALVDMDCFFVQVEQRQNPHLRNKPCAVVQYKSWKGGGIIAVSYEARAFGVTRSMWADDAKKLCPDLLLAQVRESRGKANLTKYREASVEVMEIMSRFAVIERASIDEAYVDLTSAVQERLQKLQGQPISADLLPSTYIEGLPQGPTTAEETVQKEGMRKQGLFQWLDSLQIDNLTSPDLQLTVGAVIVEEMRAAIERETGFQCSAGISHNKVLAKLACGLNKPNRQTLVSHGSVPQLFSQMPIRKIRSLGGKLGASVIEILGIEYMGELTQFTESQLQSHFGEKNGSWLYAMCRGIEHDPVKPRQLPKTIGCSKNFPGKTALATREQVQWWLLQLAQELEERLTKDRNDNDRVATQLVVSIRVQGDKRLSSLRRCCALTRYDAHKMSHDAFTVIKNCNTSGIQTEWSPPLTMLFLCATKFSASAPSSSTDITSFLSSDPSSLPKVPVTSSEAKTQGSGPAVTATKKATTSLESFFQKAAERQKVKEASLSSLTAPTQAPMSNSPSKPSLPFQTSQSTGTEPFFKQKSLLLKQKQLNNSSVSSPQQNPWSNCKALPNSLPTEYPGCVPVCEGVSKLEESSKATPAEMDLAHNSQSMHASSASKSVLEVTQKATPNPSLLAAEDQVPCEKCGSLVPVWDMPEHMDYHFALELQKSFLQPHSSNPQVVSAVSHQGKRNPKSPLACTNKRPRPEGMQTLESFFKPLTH

[4] = Inhibition of calf DNA polymerase alpha using poly(dA)/oligo(dT)18 (A/T, 2/1)/dTTP DNA template-primer substrate measured at 37 degC for 60 mins; parameters: species or system Bos taurus
[5] = target: T2, DNA polymerase subunit gamma-1 (Homo sapiens, UniProt P54098); assay: Inhibition of human DNA polymerase gamma using poly(dA)/oligo(dT)18 (A/T, 2/1)/dTTP DNA template-primer substrate measured at 37 degC for 60 mins
T2 sequence (P54098 whole entry): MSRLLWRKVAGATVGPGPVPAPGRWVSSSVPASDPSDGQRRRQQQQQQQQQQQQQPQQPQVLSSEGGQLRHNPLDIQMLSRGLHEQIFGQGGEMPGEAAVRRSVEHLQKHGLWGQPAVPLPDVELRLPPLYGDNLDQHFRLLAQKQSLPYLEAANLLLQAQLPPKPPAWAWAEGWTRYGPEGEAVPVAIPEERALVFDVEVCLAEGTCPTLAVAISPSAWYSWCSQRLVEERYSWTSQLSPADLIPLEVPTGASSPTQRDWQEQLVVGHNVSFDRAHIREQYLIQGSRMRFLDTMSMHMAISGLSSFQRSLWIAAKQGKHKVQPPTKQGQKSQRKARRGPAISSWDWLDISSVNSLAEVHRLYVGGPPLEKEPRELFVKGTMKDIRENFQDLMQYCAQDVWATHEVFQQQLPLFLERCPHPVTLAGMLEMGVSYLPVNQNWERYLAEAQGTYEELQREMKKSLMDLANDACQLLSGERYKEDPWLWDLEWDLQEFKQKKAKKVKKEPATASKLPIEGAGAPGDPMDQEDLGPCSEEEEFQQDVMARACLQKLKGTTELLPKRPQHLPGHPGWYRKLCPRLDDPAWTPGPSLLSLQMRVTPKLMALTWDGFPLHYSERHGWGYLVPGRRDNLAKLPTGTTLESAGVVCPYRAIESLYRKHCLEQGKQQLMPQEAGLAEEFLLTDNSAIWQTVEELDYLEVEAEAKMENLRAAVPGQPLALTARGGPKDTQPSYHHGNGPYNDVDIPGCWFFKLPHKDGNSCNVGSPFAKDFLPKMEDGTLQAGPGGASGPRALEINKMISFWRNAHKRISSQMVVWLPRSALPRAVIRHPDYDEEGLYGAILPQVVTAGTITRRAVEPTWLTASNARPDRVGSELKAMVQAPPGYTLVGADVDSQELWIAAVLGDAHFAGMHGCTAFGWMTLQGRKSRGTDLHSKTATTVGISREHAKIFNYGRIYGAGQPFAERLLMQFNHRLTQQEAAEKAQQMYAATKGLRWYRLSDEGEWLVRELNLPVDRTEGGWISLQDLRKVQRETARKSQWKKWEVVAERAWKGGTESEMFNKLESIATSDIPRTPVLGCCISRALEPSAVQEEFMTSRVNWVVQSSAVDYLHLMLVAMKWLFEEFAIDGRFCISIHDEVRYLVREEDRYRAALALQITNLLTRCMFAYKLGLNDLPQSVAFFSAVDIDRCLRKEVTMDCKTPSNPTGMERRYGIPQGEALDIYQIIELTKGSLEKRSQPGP

## CC[C@H](C)[C@H](NC(=O)[C@H](Cc1ccc(O)cc1)NC(=O)OC(C)(C)C)C(=O)Nc1cccc2ccccc12
HCT-116 [1]
  fold change (FC): 3
HCT-116 [2]
  fold change (FC): 2
HCT-116 [3]
  CC50: 13.2 µM
DNA polymerase eta
  IC50: > 200 µM
[4]
  IC50: > 200 µM
[5]
  IC50: > 200 µM
